# Measurements reported in patent publication US20100267763A1, “Method of Decreasing Pro-ADAM10 Secretase and/or Beta Secretase Levels” (priority 2009, published 2010).
# “Also recorded” adds a separate entry of the source. Where two headings read alike, the source gives them in different places.
# Key:
# APP = assay: Western blot of APP and APP C-terminal fragments in brain extracts of 3xTg-AD mice; format: in vivo, mouse; settings: 5 mg/kg/day
# Procedure: To attempt to determine at what part in the Aβ processing/release pathway ST101 may be active, a series of Western blot analyses of brain extracts from the same mice were conducted. These Westerns blots examined intact APP as well as products of its post-translational processing and subsequent degradation.
# FIG. 4 is a Western blot that depicts APP C-terminal fragments detected by antibody CT20 in the brains of ST101-treated (S) 3xTg-AD mice, relative to untreated (C) 3xTg mice-AD.
# FIG. 5 is a Western blot that depicts APP and degradation fragments detected by antibody CT20 in the brains of ST101-treated (S) 3xTg-AD mice, relative to untreated (C) 3xTg-AD mice. “CT20” stands for full length APP species, and “Actin” stands for anti-beta-actin antibody as a protein loading control.
# FIGS. 10A and 10B are Western blots that depict APP carboxy-terminal fragments detected by antibody CT20 in the brains of ST101-treated (T in FIG. 10A, S in FIG. 10B) 3xTg-AD mice, relative to untreated (C) 3xTg-AD mice. FIG. 10B is from a separate experiment that used the same brain extract used in the experiment for FIG. 10A. Animals were approximately 14.5 months old at sacrifice after 2.5 months of treatment with ST101 at 5 mg/kg/day in drinking water. * denotes a control animal with low levels of CTFs.
# FIGS. 10C and 10D are Western blots that depict APP carboxy-terminal fragments detected by an APP C-terminal antibody (Eptitomics #: 15654-1) in the brains of ST101-treated (S) 3xTg-AD mice, relative to untreated (C) 3xTg-AD mice. FIG. 10D is a lighter exposure of the Western blot in FIG. 10C. Animals were approximately 14.5 months old at sacrifice after 2.5 months of treatment with ST101 at 5 mg/kg/day in drinking water.
# 3xTg-AD mice = assay: Morris water maze in 3xTg-AD mice; format: in vivo, mouse; settings: 2 months
# Procedure: 3xTg-AD mice of approximately one year of age were treated for 2 months with ST101. An average dose of 5 mg/kg/day was administered in drinking water (calculated dose, based on mean water consumption). Behavioral effects were tested by assessing performance on the Morris Water Maze. Biochemical effects were examined by measuring brain content of Aβ and APP by ELISA and Western Blot.
# Behavioral Effects: Performance of 3xTg-AD Mice in the Morris Water Maze (MWM), adapted from Roozendaal et al., Proc. Natl. Acad. Sci. U.S.A. 100: 1328-1333 (2003).
# The MWM tests both spatial memory (i.e. hippocampus dependent) and cued learning (i.e. non-hippocampal) in rodents. The maze is a circular tank filled with opaque water. Mice are placed in the water and must swim to find and escape onto a platform submerged 1.5 cm beneath the surface of the water. The time (in seconds) required to find the platform is recorded. Animals rely on visual cues in the room containing the tank in order to find the platform on successive challenges. Training was conducted daily for seven consecutive days.
# Retention of training was assessed twice, 24 and 72 hours after the final training trial. Animals were subjected to a 60-second free swim in the tank with the platform removed. Parameters measured included (1) latency: time required to reach the former platform location and (2) crosses: the number of times the animal swam across the former platform location.
# sAPP-beta = assay: Western blot of sAPP-beta in brain extracts of 3xTg-AD mice; format: in vivo, mouse; settings: 14.5-month-old 3xTg-AD mice, 2 months of treatment, 5 mg/kg/day in drinking water
# Procedure: FIG. 10B describes a reduction of fragment C99. C99 is created by BACE cleavage which leads to release of soluble APP, specifically sAPP-beta. […] The Western blot was obtained using an sAPP-beta specific antibody in brain extracts from ST101 treated 3xTG-AD mice (S) versus control mice (C). Animals were approximately 14.5 months old at sacrifice after 2 months of treatment with ST101 at 5 mg/kg/day in drinking water.
# [1] = in vivo
# Text: (§1) On the surface, reduction of alpha-secretase cleavage could be considered an undesirable effect as alpha-secretase cleaves multiple other substrates. Thus, one could hypothesize that reduction of alpha-secretase might cause toxicity. However, ST101 has been proven safe in rodent and monkey toxicity studies of up to 6 months at doses up to approximately 100-fold higher than the ones used in the 3xTg-AD mice. […] This may be due to an incomplete effect of ST101 on alpha-secretases or due to activity of other alpha-secretases compensating for a major effect of ST101 on ADAM10.
# Presenilin 1 = assay: Western blot of Presenilin 1 in brain extracts of 3xTg-AD mice; format: in vivo, mouse; settings: 12-month-old 3xTg-AD mice, 5 mg/kg/day, 2 months
# Procedure: (§2) Western blots were probed with antibodies against BACE1 and ADAM10. FIG. 11A is a series of Western blots depicting levels of proADAM10, ADAM10, proBACE, BACE, Presenilin1 and APP-CFTs in brain extracts from ST101 treated 3xTG-AD mice (S) versus control mice (C). C: control brain extract. S: ST101-treated brain extract. Animals were approximately 12 months old at sacrifice after 2 months of treatment with ST101 at 5 mg/kg/day.
# (§3) FIG. 11B depicts quantification of the Western blot bands from FIG. 11A by densitometry.
# ADAM10 = assay: Western blot of ADAM10 in brain extracts of 3xTg-AD mice; format: in vivo, mouse; settings: 12-month-old 3xTg-AD mice, 5 mg/kg/day, 2 months
# Procedure: (§4) APP C-terminal fragments C99 and C83 are created by beta-secretase and alpha-secretase cleavage respectively. The reduction of both C99 and C83 induced by ST101 could therefore be due to reduction or inhibition of secretases. This hypothesis was tested using Western blots of brain extracts from 3xTg-AD mice from the initial experiment in 12-month-old animals treated with ST101 for 2 months. The only beta-secretase is BACE1 and the constitutive alpha-secretase is ADAM10.
# as §2, §3
# tau [2] = assay: Western blot of tau and phosphorylated tau in brain extracts of 3xTg-AD mice; format: in vivo, mouse; settings: overexposed blot, 12-month-old 3xTg-AD mice, 5 mg/kg/day, 2 months
# Text: The status of tau phosphorylation, accumulation and degradation can be assessed in Western blots. Two anti-tau antibodies, directed against non-phosphorylated and phosphorylated tau, were used to probe brain extracts from the initial experiment. FIG. 12 is a series of Western blots depicting levels of full-length tau, tau accumulates, tau degradation products and phosphorylated tau levels in brain extracts from ST101 treated 3xTG-AD mice (S) versus control mice (C). Beta actin levels (Ac) were used as a loading control. P-tau, two panels per antibody: top—normal exposure; bottom—overexposure to visualize minor protein bands. Ac: beta actin antibody as protein loading control. Animals were approximately 12 months old at sacrifice after 2 months of treatment with ST101 at 5 mg/kg/day.
# Aβ1-40 = assay: Aβ in brain tissue from cynomolgus monkeys; format: in vivo; settings: juvenile cynomolgus monkeys, 10 mg/kg/day by naso-gastric tube, 6 months
# Procedure: (§5) Brain samples from cynomolgus monkeys were obtained at the conclusion of a six-month chronic toxicity study. The cynomolgus monkeys used in this study were juveniles of less than 4 years of age. ST101 was administered daily for 6 months by naso-gastric tube at 10 mg/kg/day (n=8 per group). Data was generated from 8 treated and 8 control animals. Levels of Aβ1-40 are shown in FIG. 9, which is a bar graph that depicts the effect of ST 101 on Aβ in brain tissue from cynomolgus monkeys. FIG. 9 depicts the amount of levels of Aβ1-40 in monkeys treated with ST 101, relative to control monkeys.
# ADAM17 (TACE) = assay: Western blot of TACE in brain extracts of 3xTg-AD mice; format: in vivo, mouse; settings: 14.5-month-old 3xTg-AD mice, 2 months of treatment, 5 mg/kg/day in drinking water
# Procedure: In addition to ADAM10, ADAM17 (TACE, which is Tumor Necrosis Factor converting enzyme) is known to act as an alpha-secretase of APP. Thus, it was tested in a Western blot whether ST101 reduces levels of ADAM17 (TACE).
# The Western blot was obtained using a TACE specific antibody in brain extracts from ST101 treated 3xTG-AD mice (S) versus control mice (C). Animals were approximately 14.5 months old at sacrifice after 2 months of treatment with ST101 at 5 mg/kg/day in drinking water.
# BACE1 = assay: Western blot of BACE in brain extracts of 3xTg-AD mice; format: in vivo, mouse; settings: 12-month-old 3xTg-AD mice, 5 mg/kg/day, 2 months
# Procedure: as §4, §2, §3
# [3] = cited from earlier work
# Neuro2a cells = assay: Aβ production by Neuro2a cultured cells, ELISA of culture medium; format: cell-based, murine; settings: 24 hours of treatment, vs control
# Procedure: Neuro2a is a murine neuroblastoma cell line that is known to produce amyloid peptides Aβ1-40 and Aβ1-42 in amounts measurable by ELISA assays. These forms of Aβ have been correlated with the pathology in AD brain and Aβ1-42 in particular is postulated to have the ability to block α7 nicotinic receptors and to produce direct neurotoxic effects. Neuro2a cells were treated for 24 hours with ST101 added to the tissue culture medium. Tissue culture medium was collected and analyzed by ELISA for the presence of Aβ.
# FIGS. 1A and 1B are bar graphs that depict the effect of the compound ST101 on Aβ production by Neuro2a cells. FIG. 1A is a bar graph that depicts the Aβ concentration in the cell culture medium as a function of ST101 concentration compared to control. FIG. 1B a bar graph that depicts the ratio of Aβ1-42 to Aβ1-40 as a function of ST101 concentration compared to control.
# tau [4] = assay: Tau immunohistochemistry with H7 anti-tau antibody in 3xTg-AD mice; format: in vivo, mouse
# Text: The 3xTg-AD mouse model incorporates both pathological hallmarks of Alzheimer's disease: Aβ amyloid plaques and neurofibrillary tangles. Neurofibrillary tangles consist of accumulates of abnormally phosphorylated tau protein. In the 3xTg-AD mice pathological somato-dendritic accumulation of tau can be seen in immunohistochemistry as part of the disease model phenotype.
# ST101 effects on tau distribution and accumulation were explored in immunohistochemistry with H7 anti-tau antibody.
# SAMP8 mouse = settings: cited from earlier work
# [5] = cited from earlier work; remark: listed apart in the source
# Monkey toxicity studies = format: in vivo; settings: up to 6 months, doses up to approximately 100-fold higher than in 3xTg-AD mice
# Procedure: as §5, §1
# [6] = 14.5-month-old 3xTg-AD mice, 2.5 months
# [7] = antibody CT20, 12-month-old 3xTg-AD mice, 2 months
# [8] = 24 and 72 hours after final training, 5 mg/kg/day
smiles,measurement,setting,value
"O=C1N=C2C=CC=CN2C12Cc1ccccc1C2 [ST101, spiro(imidazo(1,2-a)pyridin-2(3H)-one-3,2′-indan)]",17 kDa fragment,APP; [6],lack of detection
same,C99 fragment,APP; [6],much more pronounced; also recorded: reduction
same,C83 fragment,"APP; 14.5-month-old 3xTg-AD mice, 2.5 months, compared with 12-month-old mice",not reduced to the same degree
same,C83 C-terminal APP fragment,APP; [7],substantial decrease
same,C99 C-terminal APP fragment,APP; [7],substantial decrease
same,major APP degradation intermediate (~50 kDa),APP; [7],disappearance or significant reduction
same,molecular weight of full-length APP species,APP; [7],slightly lowered molecular weight of some full-length species
same,novel C-terminal APP fragment of about 17 kDa,APP; [7],appearance
same,APP CTFs,"APP; antibody CT20, 14.5-month-old 3xTg-AD mice, 2.5 months",significant effect of reduction
same,latency on successive days of the training,"3xTg-AD mice; 3xTg-AD mice approx. one year old, 5 mg/kg/day in drinking water, vs control",greater reductions in latency
same,learning and memory performance,"3xTg-AD mice; 3xTg-AD mouse strain, 5 mg/kg/day",improves learning and memory performance
same,crosses during retention testing,3xTg-AD mice; [8],increases in crosses
same,latency during retention testing,3xTg-AD mice; [8],reductions in latency
same,sAPP-beta level,sAPP-beta,concomitant reduction
same,safety in toxicity studies,[1],proven safe
same,Presenilin 1 level,Presenilin 1,did not show significant changes
same,ADAM-10 protein level,ADAM10,not significantly affected
same,pro-ADAM10 protein level,ADAM10,profound reduction
same,accumulated tau and degradation products,tau [2]; H7 antibody,disappearance of accumulated tau and degradation products
same,phosphorylated tau degradation product,tau [2]; R-p-tau antibody,appearance of a new phosphorylated tau degradation product
same,Aβ1-40 in brain,Aβ1-40,reduction of Aβ1-40 in animals treated with ST101 that did not reach statistical significance
same,TACE level,ADAM17 (TACE),reduction of TACE levels in the majority of ST101 treated animals
same,BACE protein level,BACE1,profound reduction
same,Pro-BACE protein level,BACE1,not significantly affected
same,memory deficits induced by chemical amnesic agents,"[3]; methamphetamine, MK-801, scopolamine",attenuates
same,age-impaired memory,[3]; rodent models,significantly improves
same,Aβ1-40 in cell culture medium,Neuro2a cells,without major effects
same,Aβ1-42 in cell culture medium,Neuro2a cells,significantly reduced
same,"neuronal loss, Hematoxylin/Eosin stained control sections",tau [4],no neuronal loss
same,pathological somato-dendritic tau staining,"tau [4]; hippocampus, H7 anti-tau antibody",clear reduction
same,accumulation of Aβ-like deposits in brain tissue,SAMP8 mouse,decreased accumulation
same,learning and memory functions,SAMP8 mouse,improvement
same,extracellular ACh concentrations,[5]; cerebral cortex,increases
same,extracellular concentrations of both ACh and dopamine,[5]; hippocampus,increases
same,nicotine-stimulated release of acetylcholine (ACh),[5]; in vivo,potentiates
same,safety in toxicity studies,Monkey toxicity studies,proven safe
